Measured values from US4321381A, “Ergot derivatives” (Farmitalia Carlo Erba S.p.A., priority 1978, dated 1982).

Tests used:
[1] = test system: spontaneously hypertensive male rats, strain MHS; experiment: Anti-hypertensive activity in the spontaneously hypertensive rat (MHS): blood pressure and heart rate at the tail; format: in vivo
Procedure: 1. Spontaneously Hypertensive Rat (MHS)
Four spontaneously hypertensive male rats, strain MHS, weight 250 to 300 g for each group were used. The animals were treated for four consecutive days. The drugs were administered by gastric gavage while suspended in 5% arabic gum (0.2 ml/100 g body weight), and blood pressure (BP) and heart rate (HR) were measured at the tail by BP Recorder W+W. Blood pressure and heart rate were measured on the first and fourth day of treatment 1 hour before and 1 and 5 hours after drug administration.

[2] = Acute toxicity (LD50) in mice; format: in vivo, mouse; conditions: mouse, in vivo; male mice; oral; observed for seven days
From the text: (§1) Evaluation of the Toxicity (LD50)
(§2) Ten male mice for each group were orally treated with drugs at different dose levels for the determination of lethal dose 50 (LD50).

[3] = test system: normotensive rats; experiment: Blood pressure and heart rate in the conscious normotensive rat (NR); format: in vivo; conditions: 5 mg/kg os
Procedure: Blood pressure recordings have been made in conscious normotensive unrestrained rats weighing approximately 300 g, via a catheter chronically inserted into the left common carotid artery. Implantation of arterial cannula was made under sodium pentobarbital anesthesia (50 mg/kp i.p.) A 1 cm long incision was made through the previously shaved ventral surface of the neck and the tissues overlying the trachea parted by blunt dissection to reveal the carotid artery. The polyethylene catheter used was made with PE 50 tubing, previously filled with saline containing 250 I.U./ml heparin. The tip of the cannula was pushed at least 2 cm inside the vessel toward the heart. The cannula was then firmly tied and passed beneath the skin to emerge from a small incision in the back of the neck. During the post-operative period and before the start of each recording session, the cannula was flushed through daily with saline containing heparin (250 I.U./ml). The experiments were performed two days after surgery. Drugs were administered by gastric gavage.

[4] = test system: male mice; experiment: Acute toxicity (LD50) in mice; format: in vivo, mouse; conditions: oral, observed for seven days, 10080 min
From the text: as §1, §2

| Structure (SMILES) | Change in BP, 1 hr after dose, first day ([1]; 2 mg/kg os) [mm Hg] | Change in HR, 1 hr after dose, first day ([1]; 2 mg/kg os) [b/min] | Change in HR, 5 hr after dose, first day ([1]; 2 mg/kg os) [b/min] | Change in BP, 5 hrs after dose, first day ([1]; 2 mg/kg os) [mm Hg] | Change in BP, 1 hr after dose, fourth day ([1]; 2 mg/kg os) [mm Hg] | Change in HR, 1 hr after dose, fourth day ([1]; 2 mg/kg os) [b/min] | Change in HR, 5 hr after dose, fourth day ([1]; 2 mg/kg os) [b/min] | Change in BP, 5 hrs after dose, fourth day ([1]; 2 mg/kg os) [mm Hg] | Change in BP, 1 hr after dose, first day ([1]; 5 mg/kg os) [mm Hg] | Change in HR, 1 hr after dose, first day ([1]; 5 mg/kg os) [b/min] | Change in HR, 5 hr after dose, first day ([1]; 5 mg/kg os) | Change in BP, 5 hrs after dose, first day ([1]; 5 mg/kg os) [mm Hg] | Change in BP, 1 hr after dose, fourth day ([1]; 5 mg/kg os) [mm Hg] | Change in HR, 1 hr after dose, fourth day ([1]; 5 mg/kg os) [b/min] | Change in HR, 5 hr after dose, fourth day ([1]; 5 mg/kg os) [b/min] | Change in BP, 5 hrs after dose, fourth day ([1]; 5 mg/kg os) [mm Hg] | LD50 at 168 h [2] [mg/kg] | Change in Blood Pressure after Treatment, 30' [3] [mm Hg] | Change in heart rate after treatment, 30' [3] [b/min] | Change in Blood Pressure after Treatment, 60' [3] [mm Hg] | other results |
| --- | --- | --- | --- | --- | --- | --- | --- | --- | --- | --- | --- | --- | --- | --- | --- | --- | --- | --- | --- | --- | --- |
| CN1C[C@H](CC(C#N)C(=O)N2CCCC2)C[C@@H]2c3cccc4[nH]cc(c34)C[C@H]21 (stereo partly drawn) [Example 1133, 2-Cyano-3-(6'-methylergoline-8'β)-N-propionyl-pyrrolidine] | -20 | -33 | -28 | -11 | -21 | -20 | -3 | -10 | -24 | 0 | +13 b/min | -9 | -42 | -13 | -8 | -25 | 500 | -15 | -25 | -20 | Change in heart rate after treatment, 60' [3]: -45 b/min; Change in Blood Pressure after Treatment, 120' [3]: -15 mm Hg; Change in heart rate after treatment, 120' [3]: -40 b/min; Change in Blood Pressure after Treatment, 180' [3]: -10 mm Hg; Change in heart rate after treatment, 180' [3]: -40 b/min; Change in Blood Pressure after Treatment, 240' [3]: -9 mm Hg; Change in heart rate after treatment, 240' [3]: -10 b/min; Change in Blood Pressure after Treatment, 360' [3]: 0 mm Hg; Change in heart rate after treatment, 360' [3]: -5 b/min; Change in Blood Pressure after Treatment, 24h [3]: +5 mm Hg; Change in heart rate after treatment, 24h [3]: 0 b/min |
| CCNC(=O)C(C#N)C[C@@H]1C[C@@H]2c3cccc4[nH]cc(c34)C[C@H]2N(C)C1 (stereo partly drawn) [Example 1138, 2-Cyano-3-(6'-methylergoline-8'β)-N-ethylpropionamide] | -23 | -25 | -10 | -14 | -30 | -47 | -12 | -15 | -25 | -8 | +5 b/min | -9 | -26 | -20 | -25 | -11 | 500 | -10 | -15 | -20 | Change in heart rate after treatment, 60' [3]: -30 b/min; Change in Blood Pressure after Treatment, 120' [3]: -15 mm Hg; Change in heart rate after treatment, 120' [3]: -30 b/min; Change in Blood Pressure after Treatment, 180' [3]: -10 mm Hg; Change in heart rate after treatment, 180' [3]: -15 b/min; Change in Blood Pressure after Treatment, 240' [3]: -10 mm Hg; Change in heart rate after treatment, 240' [3]: 0 b/min; Change in Blood Pressure after Treatment, 360' [3]: 0 mm Hg; Change in heart rate after treatment, 360' [3]: +5 b/min; Change in Blood Pressure after Treatment, 24h [3]: 0 mm Hg; Change in heart rate after treatment, 24h [3]: +10 b/min |
| C[C@](N)(Cc1ccc(O)c(O)c1)C(=O)O [α-methyl-DOPA, reference compound] |  |  |  |  |  |  |  |  |  |  |  |  |  |  |  |  |  |  |  |  | Change in HR, 1 hr after dose, first day ([1]; 30 mg/kg os): +40 b/min; Change in HR, 5 hr after dose, first day ([1]; 30 mg/kg os): +15 b/min; Change in BP, 5 hrs after dose, first day ([1]; 30 mg/kg os): -12 mm Hg; Change in BP, 1 hr after dose, fourth day ([1]; 30 mg/kg os): -12 mm Hg; Change in HR, 1 hr after dose, fourth day ([1]; 30 mg/kg os): +57 b/min; Change in HR, 5 hr after dose, fourth day ([1]; 30 mg/kg os): -18 b/min; Change in BP, 5 hrs after dose, fourth day ([1]; 30 mg/kg os): -19 mm Hg; Change in BP, 1 hr after dose, first day ([1]; 100 mg/kg os): +5 mm Hg; Change in HR, 1 hr after dose, first day ([1]; 100 mg/kg os): +87 b/min; Change in BP, 5 hrs after dose, first day ([1]; 100 mg/kg os): -38 mm Hg; Change in BP, 1 hr after dose, fourth day ([1]; 100 mg/kg os): -41 mm Hg; Change in HR, 1 hr after dose, fourth day ([1]; 100 mg/kg os): +77 b/min; Change in HR, 5 hr after dose, fourth day ([1]; 100 mg/kg os): +37 b/min; Change in BP, 5 hrs after dose, fourth day ([1]; 100 mg/kg os): -53 mm Hg; variation of the heart rate (HR), in words ([1]; Table 2): greatly increases it; LD50 [4]: 5300 mg/kg per os |
